In publication PMC5601738, “Facile total synthesis of lysicamine and the anticancer activities of the Ru^II, Rh^III, Mn^II and Zn^II complexes of lysicamine” (Oncotarget, 2017):

Test system: apoptosis genes in HepG2 cells
Test: RT-qPCR array, human apoptosis PCR array (PAHS-012Z)
Assay type: cell-based
Conditions: Hep-G2 cells, 14 μM, 24 h, vs control

Which results are given for `COc1cc2ccnc3c2c(c1OC)-c1ccccc1C3=O.COc1cc2ccnc3c2c(c1OC)-c1ccccc1C3=O.COc1cc2ccnc3c2c(c1OC)-c1ccccc1C3=O.ClC(Cl)Cl.ClC(Cl)Cl.ClC(Cl)Cl.[Mn+2].[O-][Cl+3]([O-])([O-])[O-].[O-][Cl+3]([O-])([O-])[O-]` [Complex 3, [Mn(LY)3](ClO4)2·3CHCl3]?
Fold up/down-regulation, XIAP: 1.26; FoldChange, ABL1 relative expression: 1.14; FoldChange, ACTB relative expression: 0.31; FoldChange, AIFM1 relative expression: 1.39; FoldChange, AKT1 relative expression: 0.67; FoldChange, APAF1 relative expression: 0.92; FoldChange, B2M relative expression: 1.32; FoldChange, BAD relative expression: 0.81; FoldChange, BAG1 relative expression: 0.27; FoldChange, BAG3 relative expression: 1.12; FoldChange, BAK1 relative expression: 2.10; FoldChange, BAX relative expression: 1.03; FoldChange, BCL2A1 relative expression: 15.30; FoldChange, BCL2L1 relative expression: 0.51; FoldChange, BCL2L2 relative expression: 1.01; FoldChange, BCL2L10 relative expression: 1.21; FoldChange, BCL2L11 relative expression: 2.71; FoldChange, BCL2 relative expression: 1.08; FoldChange, BCL10 relative expression: 1.24; FoldChange, BFAR relative expression: 1.36; FoldChange, BID relative expression: 0.80; FoldChange, BIK relative expression: 3.02; FoldChange, BIRC2 relative expression: 1.65; FoldChange, BIRC3 relative expression: 0.56; FoldChange, BIRC5 relative expression: 0.77; FoldChange, BIRC6 relative expression: 1.22; FoldChange, BNIP2 relative expression: 1.48; FoldChange, BNIP3L relative expression: 2.06; FoldChange, BNIP3 relative expression: 1.82; FoldChange, BRAF relative expression: 1.10; FoldChange, CASP1 relative expression: 1.61; FoldChange, CASP2 relative expression: 0.83; FoldChange, CASP3 relative expression: 1.46; FoldChange, CASP4 relative expression: 1.39; FoldChange, CASP5 relative expression: 1.47; FoldChange, CASP6 relative expression: 1.46; FoldChange, CASP7 relative expression: 1.23; FoldChange, CASP8 relative expression: 1.13; FoldChange, CASP9 relative expression: 3.47; FoldChange, CASP10 relative expression: 0.69; FoldChange, CASP14 relative expression: 8.51; FoldChange, CD27 relative expression: 4.42; FoldChange, CD40LG relative expression: 1.16; FoldChange, CD40 relative expression: 0.92; FoldChange, CD70 relative expression: 0.62; FoldChange, CFLAR relative expression: 1.19; FoldChange, CIDEA relative expression: 2.51; FoldChange, CIDEB relative expression: 0.75; FoldChange, CRADD relative expression: 1.01; FoldChange, CYCS relative expression: 2.27; FoldChange, DAPK1 relative expression: 0.82; FoldChange, DFFA relative expression: 1.10; FoldChange, DIABLO relative expression: 1.68; FoldChange, FADD relative expression: 1.24; FoldChange, FAS relative expression: 0.69; FoldChange, FASLG relative expression: 1.37; FoldChange, GADD45A relative expression: 3.98; FoldChange, GAPDH relative expression: 0.86; FoldChange, HPRT1 relative expression: 0.54; FoldChange, HRK relative expression: 49.72; FoldChange, IGF1R relative expression: 0.40; FoldChange, IL10 relative expression: 1.11; FoldChange, LTA relative expression: 0.71; FoldChange, LTBR relative expression: 0.81; FoldChange, MCL1 relative expression: 2.15; FoldChange, NAIP relative expression: 0.95; FoldChange, NFKB1 relative expression: 0.54; FoldChange, NOD1 relative expression: 0.77; FoldChange, NOL3 relative expression: 0.93; FoldChange, PYCARD relative expression: 2.80; FoldChange, RIPK2 relative expression: 1.45; FoldChange, RPLP0 relative expression: 1.17; FoldChange, TNF relative expression: 16.66; FoldChange, TNFRSF1A relative expression: 0.94; FoldChange, TNFRSF1B relative expression: 0.96; FoldChange, TNFRSF9 relative expression: 110.29; FoldChange, TNFRSF10A relative expression: 0.98; FoldChange, TNFRSF10B relative expression: 1.11; FoldChange, TNFRSF11B relative expression: 3.22; FoldChange, TNFRSF21 relative expression: 3.02; FoldChange, TNFRSF25 relative expression: 2.68; FoldChange, TNFSF8 relative expression: 3.25; FoldChange, TNFSF10 relative expression: 1.70; FoldChange, TP53BP2 relative expression: 1.53; FoldChange, TP53 relative expression: 0.95; FoldChange, TP73 relative expression: 1.38; FoldChange, TRADD relative expression: 1.11; FoldChange, TRAF2 relative expression: 0.82; FoldChange, TRAF3 relative expression: 1.01; FoldChange, XIAP relative expression: 1.26
